Reference: patent US20080188528A1, “Modulators of C3a receptor and methods of use thereof” (priority 2006, published 2008)
Counter-ions that a name gives are not always drawn.

Target: T1, human C3a receptor (C3aR) (Homo sapiens, UniProt Q16581)
T1 construct: expressed in transfected cells
T1 sequence (Q16581 1-482): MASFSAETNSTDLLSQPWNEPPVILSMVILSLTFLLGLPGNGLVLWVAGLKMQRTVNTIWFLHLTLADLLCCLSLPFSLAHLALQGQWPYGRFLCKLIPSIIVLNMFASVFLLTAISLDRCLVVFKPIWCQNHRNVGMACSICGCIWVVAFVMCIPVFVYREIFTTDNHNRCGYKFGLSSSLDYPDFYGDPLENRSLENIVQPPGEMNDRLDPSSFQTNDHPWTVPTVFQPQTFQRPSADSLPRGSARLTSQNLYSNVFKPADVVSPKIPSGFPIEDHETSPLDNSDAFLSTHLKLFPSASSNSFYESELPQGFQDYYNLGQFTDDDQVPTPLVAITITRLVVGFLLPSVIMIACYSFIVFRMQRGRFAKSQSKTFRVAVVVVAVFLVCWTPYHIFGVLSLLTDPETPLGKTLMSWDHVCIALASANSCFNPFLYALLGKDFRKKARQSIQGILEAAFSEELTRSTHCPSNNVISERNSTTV
Assay: Inhibition of human [125I]-C3a binding to human C3a receptor (SPA, membranes of HEK293 cells expressing recombinant C3aR)
Conditions: 0.1 nM [125I]-C3a, 3 hours at room temperature; Table 1
Procedure: Inhibition of human [^125I]-C3a binding to human C3a receptor
Binding of human [^125I]-C3a to human C3a receptor (C3aR) was done using cell membranes from HEK293 cells stably expressing recombinant C3aR, in a homogeneous scintillation proximity assay (SPA). The C3aR cell membranes were pre-coupled over-night at 4° C. to WGA-PVT SPA beads (Amersham) at a ratio of 10 μg cell membrane to 0.5 mg beads/assay. Assay was performed in 96-well microtiter Optiplates (Packard) by mixing coupled beads and 0.1 nM [^125I]-C3a (2200 Ci/mmol, Perkin Elmer Life Sciences), in a total volume of […] binding buffer (20 mM HEPES, pH 7.4, 125 mM NaCl, 5 mM KCl, 1 mM CaCl2, 1 mM MgCl2, 0.25% BSA, 0.2% CHAPS). Test compounds were diluted in DMSO and were tested for their inhibitory potential in the assay (final concentration≦1% DMSO). Incubation was done for 3 hours at room temperature followed by reading in a TopCount scintillation microplate reader. Non-specific binding was determined by adding 1 μM unlabeled C3a (Calbiochem) to the assay mixture. Calculation of the IC50 was done as above using a nonlinear least square fitting program, with Graphpad Prism.

| SMILES | IC50 |
| --- | --- |
| N=C(N)NCCC[C@H](NC(=O)c1cccn(Cc2ccccc2)c1=O)C(=O)O [Compound 1, (2S)-2-{[(1-benzyl-2-oxo-1,2-dihydropyridin-3-yl)carbonyl]amino}-5-carbamimidamidopentanoic acid•TFA] | 50 to 500 nM |
| N=C(N)NCCC[C@@H](NC(=O)c1cccn(Cc2ccccc2)c1=O)C(=O)O [Compound 2, (2R)-2-{[(1-benzyl-2-oxo-1,2-dihydropyridin-3-yl)carbonyl]amino}-5-carbamimidamidopentanoic acid•TFA] | 500 to 20000 nM |
| N=C(N)NCCC[C@H](NC(=O)c1cccn(Cc2ccccc2Br)c1=O)C(=O)O [Compound 3, (2S)-2-({[1-(2-bromobenzyl)-2-oxo-1,2-dihydropyridin-3-yl]carbonyl}amino)-5-carbamimidamidopentanoic acid•TFA] | < 50 nM |
| N=C(N)NCCC[C@H](NC(=O)c1cccn(Cc2cccc(Br)c2)c1=O)C(=O)O [Compound 4, (2S)-2-({[1-(3-bromobenzyl)-2-oxo-1,2-dihydropyridin-3-yl]carbonyl}amino)-5-carbamimidamidopentanoic acid•TFA] | < 50 nM |
| N=C(N)NCCC[C@H](NC(=O)c1cccn(Cc2ccc(Br)cc2)c1=O)C(=O)O [Compound 5, (2S)-2-({[1-(4-bromobenzyl)-2-oxo-1,2-dihydropyridin-3-yl]carbonyl}amino)-5-carbamimidamidopentanoic acid•TFA] | < 50 nM |
| CC(C)c1ccccc1Cn1cccc(C(=O)N[C@@H](CCCNC(=N)N)C(=O)O)c1=O [Compound 6, (2S)-5-carbamimidamido-2-({[1-(2-isopropylbenzyl)-2-oxo-1,2-dihydropyridin-3-yl]carbonyl}amino)pentanoic acid•TFA] | 50 to 500 nM |
| CC(C)c1cccc(Cn2cccc(C(=O)N[C@@H](CCCNC(=N)N)C(=O)O)c2=O)c1 [Compound 7, (2S)-5-carbamimidamido-2-({[1-(3-isopropylbenzyl)-2-oxo-1,2-dihydropyridin-3-yl]carbonyl}amino)pentanoic acid•TFA] | 50 to 500 nM |
| CC(C)c1ccc(Cn2cccc(C(=O)N[C@@H](CCCNC(=N)N)C(=O)O)c2=O)cc1 [Compound 8] | < 50 nM |
| Cn1cccc(C(=O)N[C@@H](CCCNC(=N)N)C(=O)O)c1=O [Compound 9, (2S)-5-carbamimidamido-2-{[(1-methyl-2-oxo-1,2-dihydropyridin-3-yl)carbonyl]amino}pentanoic acid•TFA] | 500 to 20000 nM |
| N=C(N)NCCC[C@H](NC(=O)c1cccn(C2c3ccccc3-c3ccccc32)c1=O)C(=O)O [Compound 10, (2S)-5-carbamimidamido-2-({[1-(9H-fluoren-9-yl)-2-oxo-1,2-dihydropyridin-3-yl]carbonyl}amino)pentanoic acid•TFA] | 50 to 500 nM |
| N=C(N)NCCC[C@H](NC(=O)c1cccn(CC(c2ccccc2)c2ccccc2)c1=O)C(=O)O [Compound 11, (2S)-5-carbamimidamido-2-({[1-(2,2-diphenylethyl)-2-oxo-1,2-dihydropyridin-3-yl]carbonyl}amino)pentanoic acid•TFA] | < 50 nM |
| N=C(N)NCCC[C@H](NC(=O)c1cccn(CCC(c2ccccc2)c2ccccc2)c1=O)C(=O)O [Compound 12, (2S)-5-carbamimidamido-2-({[1-(3,3-diphenylpropyl)-2-oxo-1,2-dihydropyridin-3-yl]carbonyl}amino)pentanoic acid•TFA] | < 50 nM |
| N=C(N)NCCC[C@H](NC(=O)c1cccn(Cc2ccc3ccccc3c2)c1=O)C(=O)O [Compound 13, (2S)-5-carbamimidamido-2-({[1-(2-naphthylmethyl)-2-oxo-1,2-dihydropyridin-3-yl]carbonyl}amino)pentanoic acid•TFA] | < 50 nM |
| N=C(N)NCCC[C@H](NC(=O)c1cccn(Cc2cccc3ccccc23)c1=O)C(=O)O [Compound 14, (2S)-5-carbamimidamido-2-({[1-(1-naphthylmethyl)-2-oxo-1,2-dihydropyridin-3-yl]carbonyl}amino)pentanoic acid•TFA] | < 50 nM |
| N=C(N)NCCC[C@H](NC(=O)c1cccn(Cc2ccc3ccccc3n2)c1=O)C(=O)O [Compound 15, (2S)-5-carbamimidamido-2-({[2-oxo-1-(quinolin-2-ylmethyl)-1,2-dihydropyridin-3-yl]carbonyl}amino)pentanoic acid•TFA] | 50 to 500 nM |
| CC1(C)CCC(C)(C)c2cc(Cn3cccc(C(=O)N[C@@H](CCCNC(=N)N)C(=O)O)c3=O)ccc21 [Compound 16, (2S)-5-carbamimidamido-2-[({2-oxo-1-[(5,5,8,8-tetramethyl-5,6,7,8-tetrahydro-2-naphthyl)methyl]-1,2-dihydropyridin-3-yl}carbonyl)amino]pentanoic acid•TFA] | 500 to 20000 nM |
| N=C(N)NCCC[C@H](NC(=O)c1cccn(Cc2ccc3cc(F)ccc3c2)c1=O)C(=O)O [Compound 17, (2S)-5-carbamimidamido-2-[({1-[(6-fluoro-2-naphthyl)methyl]-2-oxo-1,2-dihydropyridin-3-yl}carbonyl)amino]pentanoic acid•TFA] | < 50 nM |
| COc1cc2ccccc2cc1Cn1cccc(C(=O)N[C@@H](CCCNC(=N)N)C(=O)O)c1=O [Compound 18, (2S)-5-carbamimidamido-2-[({1-[(3-methoxy-2-naphthyl)methyl]-2-oxo-1,2-dihydropyridin-3-yl}carbonyl)amino]pentanoic acid•TFA] | 50 to 500 nM |
| COc1ccc2cc(Cn3cccc(C(=O)N[C@@H](CCCNC(=N)N)C(=O)O)c3=O)ccc2c1 [Compound 19, (2S)-5-carbamimidamido-2-[({1-[(6-methoxy-2-naphthyl)methyl]-2-oxo-1,2-dihydropyridin-3-yl}carbonyl)amino]pentanoic acid•TFA] | 50 to 500 nM |
| N=C(N)NCCC[C@H](NC(=O)c1cccn(Cc2ccccc2-c2ccccc2)c1=O)C(=O)O [Compound 20, (2S)-2-({[1-(biphenyl-2-ylmethyl)-2-oxo-1,2-dihydropyridin-3-yl]carbonyl}amino)-5-carbamimidamidopentanoic acid•TFA] | < 50 nM |
| N=C(N)NCCC[C@H](NC(=O)c1cccn(Cc2cccc(-c3ccccc3)c2)c1=O)C(=O)O [Compound 21, (2S)-2-({[1-(biphenyl-3-ylmethyl)-2-oxo-1,2-dihydropyridin-3-yl]carbonyl}amino)-5-carbamimidamidopentanoic acid•TFA] | 50 to 500 nM |
| N=C(N)NCCC[C@H](NC(=O)c1cccn(Cc2ccc(-c3ccccc3)cc2)c1=O)C(=O)O [Compound 22, (2S)-2-({[1-(biphenyl-4-ylmethyl)-2-oxo-1,2-dihydropylidin-3-yl]carbonyl}amino)-5-carbamimidamidopentanoic acid] | < 50 nM |
| N=C(N)NCCC[C@H](NC(=O)c1cccn(Cc2ccccc2Cc2ccccc2)c1=O)C(=O)O [Compound 23, (2S)-2-({[1-(2-benzylbenzyl)-2-oxo-1,2-dihydropyridin-3-yl]carbonyl}amino)-5-carbamimidamidopentanoic acid•TFA] | < 50 nM |
| N=C(N)NCCC[C@H](NC(=O)c1cccn(Cc2cccc(Cc3ccccc3)c2)c1=O)C(=O)O [Compound 24, (2S)-2-({[1-(3-benzylbenzyl)-2-oxo-1,2-dihydropyridin-3-yl]carbonyl}amino)-5-carbamimidamidopentanoic acid•TFA] | 50 to 500 nM |
| N=C(N)NCCC[C@H](NC(=O)c1cccn(Cc2ccc(Cc3ccccc3)cc2)c1=O)C(=O)O [Compound 25, (2S)-2-({[1-(4-benzylbenzyl)-2-oxo-1,2-dihydropyridin-3-yl]carbonyl}amino)-5-carbamimidamidopentanoic acid•TFA] | 50 to 500 nM |
| N=C(N)NCCC[C@H](NC(=O)c1cccn(Cc2ccccc2-c2cccc3ccccc23)c1=O)C(=O)O [Compound 26, (2S)-5-carbamimidamido-2-[({1-[2-(1-naphthyl)benzyl]-2-oxo-1,2-dihydropyridin-3-yl}carbonyl)amino]pentanoic acid•TFA] | < 50 nM |
| N=C(N)NCCC[C@H](NC(=O)c1cccn(Cc2ccccc2-c2ccc3ccccc3c2)c1=O)C(=O)O [Compound 27, (2S)-5-carbamimidamido-2-[({1-[2-(2-naphthyl)benzyl]-2-oxo-1,2-dihydropyridin-3-yl}carbonyl)amino]pentanoic acid•TFA] | < 50 nM |
| CC(C)c1ccccc1-c1ccccc1Cn1cccc(C(=O)N[C@@H](CCCNC(=N)N)C(=O)O)c1=O [Compound 28, (2S)-5-carbamimidamido-2-[({1-[(2′-isopropylbiphenyl-2-yl)methyl]-2-oxo-1,2-dihydropyridin-3-yl}carbonyl)amino]pentanoic acid•TFA] | < 50 nM |
